Experiments:
[1] = system: A549 Human Lung Carcinoma; experiment: In vitro IC50, adhering monolayer culture, neutral red staining, inhibition of cell growth; format: cell-based; settings: 3 hours drug exposure under red light, then about 7 days growth (four cell-doubling times), neutral red absorbence at 540 nm, read-out: IC₅₀ A549 Human Lung Carcinoma
From the text: (§1) The following is the procedure carried out in ascertaining the IC₅₀ concentrations of the thiorhodamines of this invention. (IC₅₀ is the in vitro molar concentration that inhibits 50% of tumor growth. The smaller the concentration, the higher the toxicity.):
(§2) For the IC₅₀ values for the human colon carcinoma and the human lung carcinoma lines, an adhering monolayer culture was used. Two days prior to plating, a number of cells obtained from the American Type Tissue Culture Collection was selected to grow as a stock, the number being that which would ensure the cells had not reached their plateau at the time of the in vitro test. On day 1 of the assay, asynchronous exponentially growing cells from this stock were suspended in a conventional complete medium comprising RPMI 1640 medium supplemented with 5% (v/v) fetal calf serum and 5% (v/v) NU serum obtained from Collaborative Research, and 20mM HEPES buffer, i.e., 4-(2-hydroxyethyl)-1-piperazineethanesulfonic acid. This was plated into a conventional 96-well tissue culture plate using a Cetus/Perkin Elmer automated pipetting device equipped with a dual supply manifold. The cells were then incubated for 48 hours at 37°C in a humidified atmosphere containing 5% CO₂. The cells were then incubated under red light for 3 hours in the presence of varying amounts of the compound of interest at 37°C in a humidified incubator containing 5% CO₂. Compounds were tested over a 6-log range of concentrations. After 3 hours the drug treated cells were then rinsed one time with complete medium as set forth above, and incubated in the complete medium the length of time appropriate to achieve four cell-doubling times (roughly 7 days for these cell lines). The medium was removed and the cells stained for 1-2 hours at 37°C with 0.1% (w/v) neutral red dye obtained from Eastman Kodak Co., dissolved in phosphate buffered saline (PBS) (without calcium or magnesium cations) at a pH of 6.85. The cells were rinsed twice with the same PBS and dried. Excess neutral red dye was eluted from each well with 50% (v/v) ethanol in 1% (v/v) glacial acetic acid. The absorbence of each well was quantitated using a Perkin-Elmer absorbence densitometer set at 540 nm. The % of inhibition of cell growth for a given concentration of compound was calculated using the equation: [formula] where At = absorbence of the cells treated with the candidate drug, Au = absorbence of the control treated with solvent only, and Ab = absorbence of the media and well only (background). […] The plotted data was then fitted to the curve for the function: F(x) = 100 - [100(X/A)^B/(1+(X/A)^B)] where x = the concentration of the test compound, A = the IC₅₀ value (50% inhibition on the plot) and B=the exponent of the fitted function. […]

[2] = system: CX-1 Human Colon Carcinoma; experiment: as above; format: cell-based; settings: 3 hours drug exposure under red light, then about 7 days growth (four cell-doubling times), neutral red absorbence at 540 nm, read-out: IC₅₀ CX-1 Human Colon Carcinoma
From the text: as §1, §2

Structure (SMILES)	IC50 [1] [nM]	IC50 [2] [nM]
COC(=O)c1ccccc1-c1c2ccc(N(C)C)cc2[s+]c2cc(N(C)C)ccc12 [Prep. 4, 3,6-bis(dimethylamino)-9-(2-methoxycarbonylphenyl)thioxanthylium chloride]	810	810
COC(=O)c1ccccc1-c1c2ccc(=N)cc-2oc2cc(N)ccc12 [Rhodamine 123]	> 12500	> 12500

Source: patent EP0330444A2, “Novel thiorhodamines and a novel method of preparation” (EASTMAN KODAK COMPANY (a New Jersey corporation), priority 1988, dated 1989)
